# Experiments:
# Renilla luciferase = target: T1, Renilla luciferase (Renilla reniformis, UniProt P27652); assay: Visible glow of coelenterazine with crude extract of bacteria expressing Renilla luciferase in assay buffer; type: biochemical; conditions: about 0.005 mg coelenterazine, about 0.25 ml crude extract, 100 ml assay buffer
# T1 construct: made in house
# T1 sequence (P27652 1-311): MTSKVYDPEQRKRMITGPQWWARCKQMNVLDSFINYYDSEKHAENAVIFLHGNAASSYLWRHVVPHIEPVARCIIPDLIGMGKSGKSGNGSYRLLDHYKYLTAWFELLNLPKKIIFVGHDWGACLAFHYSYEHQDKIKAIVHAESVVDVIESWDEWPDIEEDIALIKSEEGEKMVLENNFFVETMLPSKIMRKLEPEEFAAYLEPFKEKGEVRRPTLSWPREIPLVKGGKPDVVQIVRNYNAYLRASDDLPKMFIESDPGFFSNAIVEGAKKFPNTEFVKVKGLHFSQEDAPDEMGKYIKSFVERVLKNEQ
# Description: In certain embodiments herein, about 1 to 10 mg, or preferably 2-5 mg, more preferably about 3 mg of coelenterazine will be used with about 100 mg of Renilla luciferase. The precise amounts, of course can be determined empirically, and, also will depend to some extent on the ultimate concentration and application.
# [1] = tested on: aequorin photoprotein luciferase or luciferase from Renilla; assay: Duration of glow of luciferin in water after adding luciferase in presence of Ca++; type: biochemical; conditions: 5 mg luciferin in one liter of water, about 10 mgs luciferase, Ca++ present; depends on water temperature
# Description: Thus, for example, 5 mg of luciferin, such as coelenterazine, in one liter of water will glow brightly for at least about 10 to 20 minutes, depending on the temperature of the water, when about 10 mgs of luciferase, such as aequorin photoprotein luciferase or luciferase from Renilla, is added thereto in presence of Ca^++. Increasing the concentration of luciferase, for example, to 100 mg/L, provides a particularly brilliant light display.
# [2] = Rat bioluminescence imaging after coelenterazine and Renilla luciferase via bilateral jugular cannulas; type: in vivo; conditions: coelenterazine 50 mM in Hank's balanced salt solution in one jugular cannula, Renilla luciferase 5 mg/ml in the opposite
# Description: (§1) A rat was equipped with bilateral jugular cannulas. To one was applied a solution of coelenterazine (50 mM) in Hank's balanced salt solution and to the opposite jugular cannula was administered Renilla luciferase, 5 mg/ml in Hank's balanced slat solution. An image was obtained and was pseudocoloured with Scion Image according to the light level obtained by a Princeton Instruments camera and is shown at FIG. 19.
# as §1, with “20.” for “19.”
# as §1, with “21.” for “19.”
smiles,measurement,setting,value
Oc1ccc(Cc2nc3c(Cc4ccccc4)nc(-c4ccc(O)cc4)cn3c2O)cc1 [coelenterazine],glow produced,Renilla luciferase,sufficient to produce a visible and lasting glow
same,time of bright glow,[1],10 to 20 min
same,"bioluminescence image, liver (FIG. 20)",[2],patchy contrast regions in the liver
same,"bioluminescence image, whole animal (FIG. 21)",[2],perfusion of bioluminescence in the whole animal

# Reference: US8431698B2, “Bioluminescent endoscopy methods and compounds” (BioLume Inc., priority 2007, dated 2013)
